# In patent EP0496452A1, “Novel endothelin receptor antagonists isolated from microbispora” (MERCK & CO. INC., priority 1991, dated 1992):
# *1 amine or outer side, *2 acyl side, *3 side chain or, on linkers, in order; H or OH if unused. Where a SMILES comes first, the peptide text is derived from it. Bridges are numbered along the chain shown (N, C = ends). [ ]: non-standard residue; d: D form. The star is where a group is joined. dPhg(3,5-diOH) = N[C@@H](C(=O)O)c1cc(O)cc(O)c1; X2 = O=C([C@@H](N[*:1])c1cc(O)cc(O)c1)[*:2]; d(aThr) = C[C@@H](O)[C@@H](N)C(=O)O; Pyrrole2CO = O=C(c1ccc[nH]1)*; X1 = O=C(c1ccc(Cl)[nH]1)*
# Experiments:
# [1] = Immunosuppressant activity (assay not described); details: may be attributable to assay differences
# [2] = biological target: T1, ET-B (Rattus norvegicus, UniProt P21451); experiment: 125I-ET-1 endothelin receptor binding assay, rat hippocampus membranes; details: 25 pM 125I-ET-1, 37° C
# T1 construct: Membranes were prepared from rat hippocampus, and rat or cow aorta; from tissue; host or cells: rat hippocampus membranes
# T1 sequence (P21451 27-442): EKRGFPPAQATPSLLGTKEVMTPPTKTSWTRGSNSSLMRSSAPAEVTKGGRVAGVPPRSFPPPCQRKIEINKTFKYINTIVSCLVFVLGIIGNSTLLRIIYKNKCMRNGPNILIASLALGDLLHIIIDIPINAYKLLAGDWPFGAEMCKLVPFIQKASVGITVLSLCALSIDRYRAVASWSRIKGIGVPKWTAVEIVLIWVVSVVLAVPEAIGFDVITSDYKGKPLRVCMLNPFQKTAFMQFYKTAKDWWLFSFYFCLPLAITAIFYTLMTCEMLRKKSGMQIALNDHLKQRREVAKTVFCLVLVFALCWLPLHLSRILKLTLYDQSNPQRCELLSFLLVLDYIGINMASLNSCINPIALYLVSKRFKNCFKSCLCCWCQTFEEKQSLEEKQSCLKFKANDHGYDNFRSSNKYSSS
# Method: (§1) The binding of cyclopeptides I, II and III to the endothelin receptor was determined in accordance with the assay described in detail immediately below. It is similar to the assay described in Ambar et al. (1989) Biochem. Biophys. Res. Commun. 158, 195-201; and Khoog et al. (1989) Febs Letters, 253, 199-202.
# (§2) Endothelin-1 (ET-1) was purchased from Peptides International (Louisville, KY ). ¹²⁵I-ET-1 (2000 Ci/mMol) was purchased from Amersham (Arlington Heights, IL).
# (§3) Membranes were prepared from rat hippocampus, and rat or cow aorta. Dissected tissue was homogenized twice for 30 seconds with a Brinkman Polytron [setting 10, Generator PTA 20 TS (Westbury, NY)] in ice cold 250 mM sucrose, 50 mM Tris-HCl pH 7.4 with 7 µg/ml pepstatin A and 0.5 µg/ml leupeptin. The crude particulate matter was removed by centrifugation at 750 x g for 10 min. The membranes were sedimented from the supernatant fraction by centrifugation at 48,000 g for 30 min. Membrane pellets were resuspended in the above buffer with protease inhibitors. Aliquots of these suspensions were stored at -70° C.
# (§4) Binding studies with ¹²⁵I-ET-1 were conducted in 50 mM potassium phosphate pH 7.5 with 0.1% bovine serum albumin (BSA) using 12-well Shatron (Lier, Norway) cell harvester tube strips. ¹²⁵I-ET-1 concentrations were 25 pM for hippocampus, 150 pM for aorta. Samples were dissolved in dimethylsulfoxide (DMSO). Upon addition of the sample, the final DMSO concentration was 3%. Membranes were added last to start the binding reaction. The reaction mixture was incubated at 37° C for 30 or 60 minutes. Binding reactions were terminated using a Skatron cell harvester by filtration through glass fiber filter pads presoaked with 2% BSA. The samples on the pads were immediately washed with 150 mM NaCl 0.1% BSA. The pads were punched out and radioactivity was evaluated in a Beckman Gamma 5500 gamma counter (Fullerton, CA). Nonspecific binding was determined in the presence of 100 nM ET-1. The results of this binding assay are set out in the table of values below: TABLE VI
# [3] = biological target: T2, ET-A (Rattus norvegicus, UniProt P26684); experiment: 125I-ET-1 endothelin receptor binding assay, rat aorta membranes; details: 150 pM 125I-ET-1, 37° C
# T2 construct: Membranes were prepared from rat hippocampus, and rat or cow aorta; from tissue; host or cells: rat aorta membranes
# T2 sequence (P26684 21-426): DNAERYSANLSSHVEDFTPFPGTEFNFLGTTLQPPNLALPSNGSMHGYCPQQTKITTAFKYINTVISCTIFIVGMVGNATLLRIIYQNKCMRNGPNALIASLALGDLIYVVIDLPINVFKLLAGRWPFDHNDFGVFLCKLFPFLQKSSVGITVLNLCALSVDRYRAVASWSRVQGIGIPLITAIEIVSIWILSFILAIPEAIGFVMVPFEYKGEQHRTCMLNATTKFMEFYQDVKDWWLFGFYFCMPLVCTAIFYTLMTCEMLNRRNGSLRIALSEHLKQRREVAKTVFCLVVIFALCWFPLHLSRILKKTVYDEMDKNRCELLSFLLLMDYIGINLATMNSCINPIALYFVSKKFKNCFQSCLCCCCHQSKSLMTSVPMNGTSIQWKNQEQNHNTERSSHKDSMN
# Method: as §1, §2, §3, §4
SMILES,immunosuppressant activity [1],Ki [2],Ki [3]
"C[C@H]1NC(=O)[C@@H](Cc2ccccc2)NC(=O)[C@H](NC(=O)[C@H](Cc2ccccc2)NC(=O)c2ccc(Cl)[nH]2)[C@@H](C)OC(=O)[C@H](c2cc(O)cc(O)c2)NC(=O)[C@@H](c2cc(O)cc(O)c2)NC1=O [Compound II] (X1-F[d(aThr)][dF][dA][dPhg(3,5-diOH)][X2]; ester 2-C)",no significant immunosuppressant activity,3000 nM,3000 nM
"C[C@H]1NC(=O)[C@@H](Cc2ccccc2)NC(=O)[C@H](NC(=O)[C@H](Cc2ccccc2)NC(=O)c2ccc(Cl)[nH]2)[C@@H](C)OC(=O)[C@@H](c2cc(O)cc(O)c2)NC(=O)[C@@H](c2cc(O)cc(O)c2)NC1=O [Compound III] (X1-F[d(aThr)][dF][dA][dPhg(3,5-diOH)][dPhg(3,5-diOH)]; ester 2-C)",no significant immunosuppressant activity,500 nM,200 nM
"C[C@H]1NC(=O)[C@@H](Cc2ccccc2)NC(=O)[C@H](NC(=O)[C@H](Cc2ccccc2)NC(=O)c2ccc[nH]2)[C@@H](C)OC(=O)[C@@H](c2cc(O)cc(O)c2)NC(=O)[C@@H](c2cc(O)cc(O)c2)NC1=O [Compound I] (Pyrrole2CO-F[d(aThr)][dF][dA][dPhg(3,5-diOH)][dPhg(3,5-diOH)]; ester 2-C)",,200 nM,100 nM
